The numbers were not newly measured in patent US9375463B2, “Compositions and methods for improving sleep using a nutraceutical formulation” (Creative Medical Health Inc., priority 2013, dated 2016), which cites them from elsewhere.

For data set [1], the system named is elderly subjects. To be noted: 500 mg daily for 8 weeks, 46 elderly subjects.
The conditions of data set [2]: 3 mg.
In data set [3] the test system is children most of whom were neurologically disabled. As to conditions: 2-5 mg before bedtime for 7-10 days, fifteen subjects.
The subject of data set [4] is healthy males with normal sleep patterns. As to conditions: 0.3 or 1.0 mg, orally.
Data set [5] has as its system subjects. To be noted: oral, 4 weeks, 9 subjects; by increasing sensitivity to light.
Data set [6] deals with infants. As to conditions: daily for 12 months.

`[Mg+2]` [magnesium]: in data set [1], the “levels of serum cortisol” value was “reduced the levels of serum cortisol” and the “subjective measures of sleep” value is listed as “improved subjective measures of sleep”.

On to “N-acetyl-5-hydroxytryptamine [melatonin]”, for which the “subjective sleep experiences (time to fall asleep, quality of sleep, awakenings)” value in data set [2] is “subjective improvements in sleep experiences”. Also, the sleep and moods entry in data set [3] was “improve sleep and moods”. Moreover, the “falling asleep faster than individuals given placebo (sleep onset latency)” value in data set [4] is given as “approximately 40 minutes”.

With vitamin B12, in data set [5], the circadian rhythm entry is “advanced the circadian rhythm”.

On to zinc [zinc supplements], for which, in data set [6], the night sleep duration result is given as “increased night sleep duration” and the night waking result is recorded as “less night waking”.
